Assay results taken from US20240365781A1, “SYNERGISTICALLY EFFECTIVE HERBICIDE COMPOSITION COMPRISING PELARGONIC ACID AND FLAZASULFURON” (Belchim Crop Protection NV, priority 2017, published 2024).

Experiments:
Assay type in all cases: in vivo
Lolium multiflorum = assay: post-emergence field trial under rows of apple trees, 150-200 L water/ha (Examples 10-12); conditions: 20 g of active compound/ha
Experimental: (§1) Herbicidal activity was determined by performing a post-emergence test. […] The corresponding mixture was in the form of a spray solution. Besides, spray solutions of individual compositions comprising pelargonic acid or flazasulfuron were used.
(§2) The spray solution was applied on plants of unwanted vegetation present on fields where perennial crops were grown.
(§3) After 5 to 88 days after application of the spray solution, the degree of damage to the unwanted vegetation is rated in % of plants of unwanted vegetation that were killed. Tests were performed on test fields (field trials).

Poa annua = assay: as above; conditions: 20 g of active compound/ha
Experimental: as §1, §2, §3

Veronica persicae = assay: as above; conditions: 20 g of active compound/ha
Experimental: as §1, §2, §3

Stellaria media = assay: as above; conditions: 20 g of active compound/ha
Experimental: as §1, §2, §3

Setaria viridis = assay: as above; conditions: 20 g of active compound/ha
Experimental: as §1, §2, §3

Taraxacum officinalis = assay: as above; conditions: 20 g of active compound/ha
Experimental: as §1, §2, §3

Trifolium repens = assay: as above; conditions: 20 g of active compound/ha
Experimental: as §1, §2, §3

Senecio vulgaris = assay: as above; conditions: 20 g of active compound/ha
Experimental: as §1, §2, §3

Chenopodium album = assay: as above; conditions: 20 g of active compound/ha
Experimental: as §1, §2, §3

Sonchus oleracea = assay: as above; conditions: 20 g of active compound/ha
Experimental: as §1, §2, §3

Capsella bursa-pastoris = assay: as above; conditions: 20 g of active compound/ha
Experimental: as §1, §2, §3

Geranium dissectum = assay: post-emergence test, pot trial (Examples 1-5); conditions: 28 d, PT, pelargonic acid 10880 g/ha, 16 L/ha
From the text: (§4) The expected activity of a given combination of two or three herbicides can be calculated as follows according to a calculation method by Colby (cf. COLBY, S. R.: “Calculating synergistic and antagonistic responses of herbicide combinations”, • Weeds 15, pages 20-22, 1967): • If X=% damage by herbicide (A) at an application rate of m g/ha, • Y=% damage by herbicide (B) at an application rate of n g/ha, • E=the expected damage by herbicides (A) and (B) at application rates of m and n […] and, • then for a combination:
(§5) Individual compositions comprising pelargonic acid or flazasulfuron are compared with a herbicide composition according to the invention comprising pelargonic acid and flazasulfuron.
(§6) Herbicidal activity was determined by performing a post-emergence test. […] The corresponding mixture was in the form of a spray liquor. Besides, spray liquors of individual compositions comprising pelargonic acid or flazasulfuron were used.
(§7) Tests were performed on test fields (field trials) or in pots (pot trials).

Setaria pumila = assay: post-emergence test, pot trial (Examples 1-5); conditions: young plants, 28 d, PT, pelargonic acid 10880 g/ha, 16 L/ha
From the text: as §4, §5, §6, §7

## COc1cc(OC)nc(NC(=O)NS(=O)(=O)c2ncccc2C(F)(F)F)n1 [Flazasulfuron, 1-(4,6-dimethoxypyrimidin-2-yl)-3-(3-trifluoromethyl-2-pyridylsulfonyl)urea]
Lolium multiflorum; Lolium multiflorum/5 d
  herbicidal effect (%): 0%
Lolium multiflorum; Lolium multiflorum/18 d
  herbicidal effect (%): 79%
Lolium multiflorum; Lolium multiflorum/32 d
  herbicidal effect (%): 87%
Lolium multiflorum; Lolium multiflorum/61 d
  herbicidal effect (%): 91%
Lolium multiflorum; Lolium multiflorum/88 d
  herbicidal effect (%): 89%
Poa annua; Poa annua/6 d
  herbicidal effect (%): 10%
Poa annua; Poa annua/16 d
  herbicidal effect (%): 53%
Poa annua; Poa annua/30 d
  herbicidal effect (%): 60%
Poa annua; Poa annua/57 d
  herbicidal effect (%): 58%
Poa annua; Poa annua/78 d
  herbicidal effect (%): 83%
Veronica persicae; Veronica persicae/7 d
  herbicidal effect (%): 20%
Veronica persicae; Veronica persicae/16 d
  herbicidal effect (%): 4%
Veronica persicae; Veronica persicae/26 d
  herbicidal effect (%): 20%
Veronica persicae; Veronica persicae/59 d
  herbicidal effect (%): 0%
Stellaria media; Stellaria media/5 d
  herbicidal effect (%): 0%
Stellaria media; Stellaria media/18 d
  herbicidal effect (%): 79%
Setaria viridis; Setaria viridis/6 d
  herbicidal effect (%): 10%
Setaria viridis; Setaria viridis/16 d
  herbicidal effect (%): 50%
Setaria viridis; Setaria viridis/30 d
  herbicidal effect (%): 55%
Setaria viridis; Setaria viridis/57 d
  herbicidal effect (%): 53%
Setaria viridis; Setaria viridis/78 d
  herbicidal effect (%): 43%
Taraxacum officinalis; Taraxacum officinalis/5 d
  herbicidal effect (%): 0%
Taraxacum officinalis; Taraxacum officinalis/18 d
  herbicidal effect (%): 71%
Taraxacum officinalis; Taraxacum officinalis/32 d
  herbicidal effect (%): 83%
Taraxacum officinalis; Taraxacum officinalis/61 d
  herbicidal effect (%): 72%
Taraxacum officinalis; Taraxacum officinalis/88 d
  herbicidal effect (%): 71%
Trifolium repens; Trifolium repens/7 d
  herbicidal effect (%): 20%
Trifolium repens; Trifolium repens/16 d
  herbicidal effect (%): 40%
Trifolium repens; Trifolium repens/26 d
  herbicidal effect (%): 63%
Trifolium repens; Trifolium repens/59 d
  herbicidal effect (%): 68%
Senecio vulgaris; Senecio vulgaris/6 d
  herbicidal effect (%): 4%
Senecio vulgaris; Senecio vulgaris/28 d
  herbicidal effect (%): 13%
Senecio vulgaris; Senecio vulgaris/58 d
  herbicidal effect (%): 18%
Chenopodium album; Chenopodium album/6 d
  herbicidal effect (%): 13%
Chenopodium album; Chenopodium album/16 d
  herbicidal effect (%): 59%
Chenopodium album; Chenopodium album/30 d
  herbicidal effect (%): 63%
Chenopodium album; Chenopodium album/57 d
  herbicidal effect (%): 58%
Chenopodium album; Chenopodium album/78 d
  herbicidal effect (%): 64%
Sonchus oleracea; Sonchus oleracea/6 d
  herbicidal effect (%): 18%
Sonchus oleracea; Sonchus oleracea/16 d
  herbicidal effect (%): 28%
Sonchus oleracea; Sonchus oleracea/30 d
  herbicidal effect (%): 43%
Sonchus oleracea; Sonchus oleracea/57 d
  herbicidal effect (%): 23%
Sonchus oleracea; Sonchus oleracea/78 d
  herbicidal effect (%): 45%
Capsella bursa-pastoris; Capsella bursa-pastoris/6 d
  herbicidal effect (%): 16%
Capsella bursa-pastoris; Capsella bursa-pastoris/16 d
  herbicidal effect (%): 45%
Capsella bursa-pastoris; Capsella bursa-pastoris/30 d
  herbicidal effect (%): 55%
Capsella bursa-pastoris; Capsella bursa-pastoris/57 d
  herbicidal effect (%): 58%
Geranium dissectum; bigger plants, flazasulfuron 50 g/ha
  herbicidal effect: 0%
Geranium dissectum; young plants, flazasulfuron 25 g/ha
  herbicidal effect: 7%
Geranium dissectum; young plants, flazasulfuron 50 g/ha
  herbicidal effect: 8%
Setaria pumila; flazasulfuron 25 g/ha
  herbicidal effect: 89%
Setaria pumila; flazasulfuron 50 g/ha
  herbicidal effect: 92%
